Test results as given in PMC5931107, “Clinical pharmacodynamic/exposure characterisation of the multikinase inhibitor ilorasertib (ABT-348) in a phase 1 dose-escalation trial” (British Journal of Cancer, 2018).
Read-outs that look alike come from different tables or passages of the source. Marks after values point to notes of the source that are not given here.

How the values were obtained:
VEGFR2 = test system: VEGFR2; set-up: method as in PMID 22935731; details: 1 mM ATP; read-out: Biochemical IC50 (95% confidence limits); cited from earlier work
CSF-1R = test system: CSF-1R; set-up: method as in PMID 22935731; details: 1 mM ATP; read-out: Biochemical IC50 (95% confidence limits); cited from earlier work
[1] = Plasma pharmacokinetics, Arm III (i.v. infusion), phase 1 trial; assay type: in vivo, human; details: for half-life: read-out: t1/2 (harmonic mean) (converted)
Method: Pharmacokinetics of ilorasertib were evaluated in the dose-escalation cohort on blood samples that were collected on cycle 1 days 1 and 15. Parameters determined: Cmax, time to Cmax (Tmax), terminal phase elimination half-life (t1/2), clearance, apparent oral clearance (CL/F), and area under the plasma concentration-time curve from time 0 to time of last measurable concentration (AUCt) and from time 0 to infinity (AUC∞). For Arm I, blood samples were collected prior to dosing and at 0.5, 1, 2, 3, 4, 6, 8, 10 or 12, and 24 h after dosing on cycle 1 days 1 and 15; of note, for institutions not able to collect the 10- or 12-h post-dose sample, the 24-h sample was replaced with 22-h and 28-h post-dose samples. In Arm II, for the first dose, blood samples were collected pre-dose and at 1, 2, 3, and 4 h post-dose on cycle 1 days 1 and 15; for the second dose, samples were collected pre-dose and at 1, 2, 3, 4, 18, and 24 h after second dose on cycle 1 days 1 and 15. In Arm III, blood samples were collected prior to infusion, at 1 h 55 min (just before end of infusion), and at 0.5, 1, 2, 4, 6, 8, 10, and 24 h after end of infusion on cycle 1 days 1 and 15; here also, for institutions not able to collect the 8-h or 10-h after-end-of-infusion samples, the 24-h sample was replaced with 22-h and 28-h post-dose samples. The liquid chromatography (LC)-mass spectrometry (MS)/MS method was developed and validated in the Bioanalysis Department of AbbVie. Fifty microliter of human plasma (K2EDTA as anticoagulant) was fortified with 300 μL of deuterium-stable labelled internal standard and mixed well. A HybridSPE precipitation plate (50 mg/96 wells, Supelco Analytical, Munich, Germany) was used to directly load and elute (under slight vacuum) the fortified samples into a clean collection plate. Samples were dried before reconstitution with 100 μL of 20/80 (v/v) acetonitrile/water, and injected for LC-MS/MS analysis. A Halo C8 (Wilmington, DE, USA; 2.7 μm, 2.1 × 30 mm) was used on an Agilent 1290 Infinity UPLC pump (Agilent Technologies, Santa Clara, CA) to carry out the separation. An isocratic condition with 25/75/0.1 (v/v/v) acetonitrile/water/98% formic acid was used as the mobile phase. The flow rate was set to be 0.6 mL/min. An MPS 3 C ([…] Ruhr, Germany) autosampler was used to introduce samples onto the UPLC system. An API 4000 mass spectrometer (Applied Biosystems, Foster City, CA) was used in the multiple reactions monitoring mode for the detection and quantitation of analyte. Descriptive statistics were used for demographic variables. The numbers and percentages of patients with treatment-emergent AEs (TEAEs) were tabulated using the Medical Dictionary for Regulatory Activities version 16.0 system organ class and preferred term, and further classified according to CTCAE version 4.0 criteria. The safety data set included all patients who received one or more doses of ilorasertib. The pharmacokinetic data set included all patients who received one or more doses of ilorasertib and had one or more pharmacokinetic samples. Values for pharmacokinetic parameters were determined using non-compartmental methods, with data analysed separately for each arm. A repeated measures analysis was performed for Tmax and dose-normalised Cmax, AUCt, and AUC∞. The model included random effects for patient and fixed effects for dose level, day, and the interaction of dose level and day. To assess effects of exposure on pharmacodynamic biomarkers, Cmax was employed as the directly measured marker of exposure for the rapid changes in DBP and PlGF pre-steady-state, while AUC∞ reflected exposure variability at the time of post-multiple-dose skin biopsy. Descriptive statistics were used to summarise ECOG performance status. The efficacy data set included all patients who received one or more doses of ilorasertib.

[2] = Arm III i.v. infusion 8 mg, day 1, N=4
[3] = Arm III i.v. infusion 8 mg, day 15, N=4
[4] = Arm III i.v. infusion 16 mg, day 1, N=1
[5] = Arm III i.v. infusion 16 mg, day 15, N=1
[6] = Arm III i.v. infusion 32 mg, day 1, N=2, mean (individual)
[7] = Arm III i.v. infusion 32 mg, day 15, N=2, mean (individual)
[8] = Arm III i.v. infusion all doses, day 1, N=7
[9] = Arm III i.v. infusion all doses, day 15, N=7
[10] = human, plasma, iv, 8 mg, Arm III i.v. infusion 8 mg, day 1, N=3
[11] = human, plasma, iv, 8 mg, Arm III i.v. infusion 8 mg, day 15, N=3
[12] = human, plasma, iv, 16 mg, Arm III i.v. infusion 16 mg, day 1, N=1
[13] = human, plasma, iv, 16 mg, Arm III i.v. infusion 16 mg, day 15, N=1
[14] = human, plasma, iv, 32 mg, Arm III i.v. infusion 32 mg, day 1, N=2, mean (individual)
[15] = human, plasma, iv, 32 mg, Arm III i.v. infusion 32 mg, day 15, N=2, mean (individual)
[16] = human, plasma, iv, Arm III i.v. infusion all doses, day 1, N=6
[17] = human, plasma, iv, Arm III i.v. infusion all doses, day 15, N=6

For `Nc1ncc(-c2cnn(CCO)c2)c2scc(-c3ccc(NC(=O)Nc4cccc(F)c4)cc3)c12` [ilorasertib, Ilorasertib], the IC50 (VEGFR2) is given as 2 nM, the IC50 (CSF-1R) is given as […] and the “AUC∞/dose” value ([1]; Arm III i.v. infusion 8 mg, day 1, N=3) is given as 273 ± 38.5^b ng•h/mL/mg. For the same compound, the AUCt/dose [1, 2] was 185 ± 42.9 ng·h/mL/mg, the Cmax/dose [1, 2] was 29.3 ± 10.3 ng/mL/mg and the “AUC∞/dose” value ([1]; Arm III i.v. infusion 8 mg, day 15, N=3) was 360 ± 249^b ng•h/mL/mg. It also gave an AUCt/dose [1, 3] of 219 ± 71.5 ng·h/mL/mg, a Cmax/dose [1, 3] of 30.8 ± 13.3 ng/mL/mg and an AUCt/dose [1, 4] of 119 ng·h/mL/mg. For the same compound, the “AUC∞/dose” value [1, 4] was 152 ng·h/mL/mg, the Cmax [1, 4] was 0.37 µg/mL and the Cmax/dose [1, 4] was 22.9 ng/mL/mg. The AUCt/dose [1, 5] was 190 ng·h/mL/mg, the “AUC∞/dose” value [1, 5] was 215 ng·h/mL/mg and the Cmax [1, 5] was 0.74 µg/mL. For the same compound, the Cmax/dose [1, 5] was 46 ng/mL/mg, the AUCt/dose [1, 6] was 265 (390, 139) ng•h/mL/mg and the “AUC∞/dose” value [1, 6] was 287 (424, 150) ng•h/mL/mg. The Cmax [1, 6] was 1.31 (1.69, 0.94) μg/mL, the Cmax/dose [1, 6] was 41.0 (52.8, 29.2) ng/mL/mg and the AUCt/dose [1, 7] was 228 (304, 153) ng•h/mL/mg. For the same compound, the “AUC∞/dose” value [1, 7] was 263 (358, 168) ng•h/mL/mg, the Cmax [1, 7] was 1.37 (1.85, 0.88) μg/mL and the Cmax/dose [1, 7] was 42.7 (57.8, 27.6) ng/mL/mg. The “AUC∞/dose” value ([1]; Arm III i.v. infusion all doses, day 1, N=6) was 258 ± 104^d ng•h/mL/mg, the AUCt/dose [1, 8] was 198 ± 93.7 ng·h/mL/mg and the Cmax/dose [1, 8] was 31.8 ± 12.0 ng/mL/mg. The “AUC∞/dose” value ([1]; Arm III i.v. infusion all doses, day 15, N=6) was 303 ± 180^d ng•h/mL/mg, the AUCt/dose [1, 9] was 217 ± 68.0 ng·h/mL/mg and the Cmax/dose [1, 9] was 36.4 ± 14.7 ng/mL/mg. It also gave an AUC(0-inf) [1, 10] of 2190 ± 310 ng·h/mL, a clearance [1, 10] of 61.8 mL/min and a half-life [1, 10] of 8.5 ± 4.1 h. It also gave an AUC(0-t) ([1]; human, plasma, iv, 8 mg, Arm III i.v. infusion 8 mg, day 1, N=4) of 1480 ± 340 ng·h/mL, a Cmax ([1]; human, plasma, iv, 8 mg, Arm III i.v. infusion 8 mg, day 1, N=4, read-out: Cmax) of 0.23 ± 0.08 µg/mL and an AUC(0-inf) [1, 11] of 2880 ± 1990 ng·h/mL. It also gave a clearance [1, 11] of 60.2 mL/min, an AUC(0-t) ([1]; human, plasma, iv, 8 mg, Arm III i.v. infusion 8 mg, day 15, N=4) of 1750 ± 570 ng·h/mL and a Cmax ([1]; human, plasma, iv, 8 mg, Arm III i.v. infusion 8 mg, day 15, N=4, read-out: Cmax) of 0.25 ± 0.11 µg/mL. For the same compound, the AUC(0-inf) [1, 12] was 2440 ng·h/mL, the AUC(0-t) [1, 12] was 1910 ng·h/mL and the clearance [1, 12] was 109 mL/min. It also gave an AUC(0-inf) [1, 13] of 3450 ng·h/mL, an AUC(0-t) [1, 13] of 3040 ng·h/mL and a clearance [1, 13] of 77.3 mL/min. The half-life [1, 13] was 9.6 h, the AUC(0-inf) [1, 14] was 9180 ng·h/mL and the AUC(0-t) [1, 14] was 8460 ng·h/mL. The clearance [1, 14] was 75.2 mL/min, the half-life [1, 14] was 9.3 h and the AUC(0-inf) [1, 15] was 8410 ng·h/mL. It also gave an AUC(0-t) [1, 15] of 7300 ng·h/mL, a clearance [1, 15] of 73 mL/min and a clearance [1, 16] of 74.2 mL/min. The half-life [1, 16] was 9.1 ± 3.3 h, the clearance [1, 17] was 67.3 mL/min and the half-life [1, 17] was 12.1 ± 4.4 h. It also gave a Tmax ([1]; human, plasma, iv, Arm III i.v. infusion 8 mg, day 1, N=4) of 2 ± 0.2 h and a Tmax ([1]; human, plasma, iv, Arm III i.v. infusion all doses, day 1, N=7) of 2 ± 0.2 h.
